Laboratory results: ChEMBL document CHEMBL1201862, “PubChem BioAssay data set” (2004)
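Dose response: 5 concentrations. Exposure: 48 h. Format: 96-well plates. Endpoint: linear interpolation; highest concentration if not reached. GI50: concentration for 50% inhibition of growth.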 Active and inactive are the calls of the source. Cut-off read from the data, not from the text of the source: active = GI50 up to about 1.1 µM and inactive = higher.

How the values were obtained:
Assay in all cases: growth of human tumour cells (NCI), 48 h
786-0 = test system: 786-0
A498 = test system: A498
CCRF-CEM = test system: CCRF-CEM
EKVX = test system: EKVX
HL-60 = test system: HL-60
HOP-62 = test system: HOP-62
HOP-92 = test system: HOP-92
IGROV-1 = test system: IGROV-1
LOX IMVI = test system: LOX IMVI
MDA-MB-435 = test system: MDA-MB-435
MOLT-4 = test system: MOLT-4
Malme-3M = test system: Malme-3M
OVCAR-5 = test system: OVCAR-5
OVCAR-8 = test system: OVCAR-8
SF-295 = test system: SF-295
SK-MEL-28 = test system: SK-MEL-28
SK-MEL-2 = test system: SK-MEL-2
MCF7 = test system: MCF7
OVCAR-4 = test system: OVCAR-4
SR = test system: SR

Compound | GI50 (786-0) | GI50 (A498) | GI50 (CCRF-CEM) | GI50 (EKVX) | GI50 (HL-60) | GI50 (HOP-62) | GI50 (HOP-92) | GI50 (IGROV-1) | GI50 (LOX IMVI) | GI50 (MDA-MB-435) | GI50 (MOLT-4) | GI50 (Malme-3M) | GI50 (OVCAR-5) | GI50 (OVCAR-8) | GI50 (SF-295) | GI50 (SK-MEL-28) | GI50 (SK-MEL-2) | GI50 (MCF7) | GI50 (OVCAR-4) | GI50 (SR)
CC1=NNC(=O)C1C1C=C(c2c[nH]c3ccccc23)OC1=O (stereo unspecified) | > 100 µM (inactive) | > 100 µM (inactive) | 59.6 µM (inactive) | > 100 µM (inactive) | > 100 µM (inactive) | > 100 µM (inactive) | > 100 µM (inactive) | 37 µM (inactive) | > 100 µM (inactive) | > 100 µM (inactive) | > 100 µM (inactive) | > 100 µM (inactive) | > 100 µM (inactive) | > 100 µM (inactive) | > 100 µM (inactive) | > 100 µM (inactive) | > 100 µM (inactive) |  |  | 
CCOC(=O)C(C(=O)c1ccccc1C(=O)OC)=P(c1ccccc1)(c1ccccc1)c1ccccc1 | > 10 µM (inactive) | > 10 µM (inactive) | > 10 µM (inactive) | > 10 µM (inactive) | > 10 µM (inactive) | > 10 µM (inactive) | > 10 µM (inactive) | > 10 µM (inactive) | > 10 µM (inactive) | > 10 µM (inactive) | > 10 µM (inactive) | > 10 µM (inactive) | > 10 µM (inactive) | > 10 µM (inactive) | > 10 µM (inactive) | > 10 µM (inactive) | > 10 µM (inactive) | > 10 µM (inactive) | > 10 µM (inactive) | 
CN(C)CC/[N+]([O-])=C(/c1ccccc1)C12CC3CC(CC(C3)C1)C2 | 13.5 µM (inactive) | 18.3 µM (inactive) | 15.8 µM (inactive) | 21 µM (inactive) | 11.8 µM (inactive) | 14.8 µM (inactive) | 14.1 µM (inactive) | 18.5 µM (inactive) | 15.3 µM (inactive) |  | 16.7 µM (inactive) | 39.7 µM (inactive) | 17.7 µM (inactive) | 17.9 µM (inactive) | 14 µM (inactive) | 16.2 µM (inactive) | 18.2 µM (inactive) |  |  | 16.2 µM (inactive)
OCCOCn1nncc1Cn1ncc2c(O)ncnc21 | 52 µM (inactive) | > 100 µM (inactive) |  | > 100 µM (inactive) | 23.9 µM (inactive) | > 100 µM (inactive) | > 100 µM (inactive) | > 100 µM (inactive) | 74.3 µM (inactive) | 26.9 µM (inactive) | 40 µM (inactive) | > 100 µM (inactive) | > 100 µM (inactive) | > 100 µM (inactive) | > 100 µM (inactive) | > 100 µM (inactive) | 54.1 µM (inactive) | 48.8 µM (inactive) | > 100 µM (inactive) | 
COc1ccc2cc3nc(O)cc(O)c3cc2c1OC | > 100 µM (inactive) | > 100 µM (inactive) | > 100 µM (inactive) | > 100 µM (inactive) | > 100 µM (inactive) | > 100 µM (inactive) | > 100 µM (inactive) | > 100 µM (inactive) | > 100 µM (inactive) |  | > 100 µM (inactive) | > 100 µM (inactive) | > 100 µM (inactive) | > 100 µM (inactive) | > 100 µM (inactive) | > 100 µM (inactive) | > 100 µM (inactive) |  | > 100 µM (inactive) | > 100 µM (inactive)
COc1ccc(C2=NNC(=O)OC2c2ccccc2)cc1 (stereo unspecified) | > 100 µM (inactive) | 49.4 µM (inactive) | 48.3 µM (inactive) | 76 µM (inactive) | 67.5 µM (inactive) | > 100 µM (inactive) | 43.6 µM (inactive) | > 100 µM (inactive) | 55 µM (inactive) |  | 43.8 µM (inactive) | 52.8 µM (inactive) | > 100 µM (inactive) | > 100 µM (inactive) | 22.4 µM (inactive) | > 100 µM (inactive) | 36.1 µM (inactive) |  | > 100 µM (inactive) | 55.2 µM (inactive)
C/C(=N\NS(=O)(=O)c1ccccc1)c1ccc(Cl)c(Cl)c1 | 82.2 µM (inactive) | 41.8 µM (inactive) | > 100 µM (inactive) | 67.3 µM (inactive) | 97.3 µM (inactive) | 61.5 µM (inactive) | 67 µM (inactive) | 72.9 µM (inactive) | 78.9 µM (inactive) |  | 47.8 µM (inactive) | 68.2 µM (inactive) | > 100 µM (inactive) | 40.6 µM (inactive) | 46.3 µM (inactive) | 63.4 µM (inactive) | > 100 µM (inactive) |  | 58.9 µM (inactive) | 62.2 µM (inactive)
N/C1=C/C(=O)NC(=O)c2c(c3ccccc3oc2=O)C1 | > 100 µM (inactive) | > 100 µM (inactive) | > 100 µM (inactive) | 46.7 µM (inactive) | > 100 µM (inactive) | > 100 µM (inactive) | > 100 µM (inactive) | > 100 µM (inactive) | > 100 µM (inactive) | > 100 µM (inactive) | > 100 µM (inactive) | > 100 µM (inactive) | > 100 µM (inactive) | > 100 µM (inactive) |  | > 100 µM (inactive) | > 100 µM (inactive) |  | > 100 µM (inactive) | > 100 µM (inactive)
Nc1ccc(C(=O)/C=C/c2ccccc2O)cc1 | > 100 µM (inactive) | > 100 µM (inactive) | > 100 µM (inactive) | > 100 µM (inactive) | > 100 µM (inactive) | > 100 µM (inactive) |  | > 100 µM (inactive) | > 100 µM (inactive) |  | > 100 µM (inactive) | > 100 µM (inactive) | > 100 µM (inactive) | > 100 µM (inactive) | > 100 µM (inactive) | > 100 µM (inactive) | > 100 µM (inactive) |  | > 100 µM (inactive) | > 100 µM (inactive)
Cc1[nH]c2ccccc2c1C1Cc2ccccc2N1C(=O)/C=C/C=C/c1ccccc1 (stereo unspecified) | > 100 µM (inactive) | > 100 µM (inactive) | 58.2 µM (inactive) | > 100 µM (inactive) | 27.5 µM (inactive) | > 100 µM (inactive) | > 100 µM (inactive) | > 100 µM (inactive) | > 100 µM (inactive) |  | 12.7 µM (inactive) | > 100 µM (inactive) | > 100 µM (inactive) | > 100 µM (inactive) | > 100 µM (inactive) | > 100 µM (inactive) | > 100 µM (inactive) |  | 24.3 µM (inactive) | > 100 µM (inactive)
COc1cc(OC)cc(Oc2nc3ccccc3nc2C(=O)O)c1 | > 100 µM (inactive) | > 100 µM (inactive) | > 100 µM (inactive) | > 100 µM (inactive) | > 100 µM (inactive) | > 100 µM (inactive) | > 100 µM (inactive) | > 100 µM (inactive) | > 100 µM (inactive) | > 100 µM (inactive) | > 100 µM (inactive) | > 100 µM (inactive) | > 100 µM (inactive) | > 100 µM (inactive) | > 100 µM (inactive) | > 100 µM (inactive) | > 100 µM (inactive) |  | 0.6 µM (active) | > 100 µM (inactive)
COc1c(N2CCCCC2)c2c(=O)c3ccccc3oc2c2c3ccccc3n(C)c12 | > 100 µM (inactive) |  | 64.3 µM (inactive) | > 100 µM (inactive) | 57.3 µM (inactive) | > 100 µM (inactive) | > 100 µM (inactive) |  | > 100 µM (inactive) | > 100 µM (inactive) | 54.8 µM (inactive) | > 100 µM (inactive) | > 100 µM (inactive) | > 100 µM (inactive) | > 100 µM (inactive) | > 100 µM (inactive) | > 100 µM (inactive) | 29.7 µM (inactive) | > 100 µM (inactive) | 
CCOC(=O)c1cn2c([nH]c3ccccc32)c(C#N)c1=O | > 100 µM (inactive) | > 100 µM (inactive) | 52.4 µM (inactive) | > 100 µM (inactive) | 25.8 µM (inactive) | > 100 µM (inactive) | > 100 µM (inactive) | > 100 µM (inactive) | 25.7 µM (inactive) |  | > 100 µM (inactive) | > 100 µM (inactive) | > 100 µM (inactive) | > 100 µM (inactive) | > 100 µM (inactive) | > 100 µM (inactive) | > 100 µM (inactive) |  | > 100 µM (inactive) | > 100 µM (inactive)
Cc1nc2c(=S)n(C)ncc2[nH]1 | > 100 µM (inactive) | > 100 µM (inactive) | > 100 µM (inactive) | > 100 µM (inactive) | > 100 µM (inactive) | > 100 µM (inactive) |  | > 100 µM (inactive) | > 100 µM (inactive) | > 100 µM (inactive) | > 100 µM (inactive) | 0.0133 µM (active) | > 100 µM (inactive) | > 100 µM (inactive) | > 100 µM (inactive) | > 100 µM (inactive) | > 100 µM (inactive) | > 100 µM (inactive) | > 100 µM (inactive) | 
O=C1c2cccc(O)c2C(=O)c2c(O)cccc21 [DANTHRON] | > 100 µM (inactive) | 17.9 µM (inactive) | > 100 µM (inactive) | 98.9 µM (inactive) |  | > 100 µM (inactive) | > 100 µM (inactive) | > 100 µM (inactive) | 55.8 µM (inactive) |  | 40.1 µM (inactive) |  | > 100 µM (inactive) | > 100 µM (inactive) | 55.6 µM (inactive) | > 100 µM (inactive) | > 100 µM (inactive) |  | 26.3 µM (inactive) | 43.3 µM (inactive)
